Data: the supplement of paper PMC10307832

Tests used:
Assay in all cases: relative viability (nuclei count vs DMSO), 5 days (fraction); higher = more cells survive
RU-SKI 43 + Trametinib = compound: CC[C@@H](C)CNCC(=O)N1CCC2=C([C@@H]1COC3=CC=CC(=C3)C)C=CS2 [RU-SKI 43] + CC(=O)Nc1cccc(-n2c(=O)n(C3CC3)c(=O)c3c(Nc4ccc(I)cc4F)n(C)c(=O)c(C)c32)c1 [Trametinib] (partner 0.02 µM)
Outline: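 Lung cancer cell lines, seeded in 1536-well plates, were treated the following day by pin tool with a single drug or with five library-drug doses (not always all listed) in √10 steps on top of a fixed anchor-drug dose. Cells were fixed and nuclei stained in one step after 5 days, and nuclei were counted. Relative viability is the nuclei count for treated wells divided by that for vehicle wells, reported as medians of duplicate plates.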

RU-SKI 43 = compound: CC[C@@H](C)CNCC(=O)N1CCC2=C([C@@H]1COC3=CC=CC(=C3)C)C=CS2 [RU-SKI 43]
Outline: (§1)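 Cells of lung cancer lines were placed in 1536-well plates and kept overnight at 37 °C. Pinning then delivered five library-drug doses (not always all listed), spaced by √10, onto plates anchored with vehicle, and the cells were left 5 days without changing medium. One step fixed, permeabilised and stained them with Hoechst, and MetaXpress counted nuclei in 4× images. Viability, as a median over plates, is treated-well nuclei divided by vehicle-well nuclei, with acceptance only at control CV below 25% and at least one doubling.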

Irinotecan = compound: CCc1c2c(nc3ccc(OC(=O)N4CCC(N5CCCCC5)CC4)cc13)-c1cc3c(c(=O)n1C2)COC(=O)[C@]3(O)CC [Irinotecan]
Outline: as §1

MK-8033 = compound: Cn1cc(-c2cnc3ccc4ccc(CS(=O)(=O)NCc5ccccn5)cc4c(=O)c3c2)cn1 [MK-8033]
Outline: as §1

Cell Line	relative viability (RU-SKI 43 + Trametinib; first compound 0.1 µM)	relative viability (RU-SKI 43 + Trametinib; first compound 0.3162 µM)	relative viability (RU-SKI 43 + Trametinib; first compound 1 µM)	relative viability (RU-SKI 43 + Trametinib; first compound 3.162 µM)	relative viability (RU-SKI 43 + Trametinib; first compound 10 µM)	relative viability (RU-SKI 43; 0.1 µM)	relative viability (RU-SKI 43; 0.3162 µM)	relative viability (RU-SKI 43; 1 µM)	relative viability (RU-SKI 43; 3.162 µM)	relative viability (RU-SKI 43; 10 µM)	relative viability (Irinotecan; 0.6325 µM)	relative viability (Irinotecan; 2 µM)	relative viability (Irinotecan; 6.325 µM)	relative viability (Irinotecan; 20 µM)	relative viability (MK-8033; 0.02 µM)	relative viability (MK-8033; 0.06325 µM)	relative viability (MK-8033; 0.2 µM)	relative viability (MK-8033; 0.6325 µM)	relative viability (MK-8033; 2 µM)
HCC-78	0.678	0.916	0.641	0.809	0.724	1.01	0.961	1.2	0.944	0.911	0.8	0.686	0.24	0.326	0.959	0.895	0.863	0.982	0.926
NCI-H441	0.483	0.426	0.552	0.45	0.265	1.12	1.16	1.08	1.14	0.956	0.567	0.614	0.303	0.266	1.01	0.903	1.04	1.02	1.08
NCI-H1299						1.02	1.09	1.05	1.04	0.946	0.799	0.738	0.489	0.283	1.01	1.02	0.994	0.985	1
LU99A	0.561	0.65	0.595	0.553	0.489	0.93	1.08	0.95	0.966	0.851	0.38	0.355	0.215	0.212	1.05	0.897	0.817	0.947	0.926
NCI-H1651	0.793	0.876	0.966	0.893	0.835	0.931	1.01	1.08	1.09	0.927	0.676	0.779	0.458	0.172	1.01	0.944	0.934	1.06	0.971
HARA	0.507	0.806	1.02	0.936	0.561	1.06	0.959	1.05	1.06	0.84	0.612	0.618	0.308	0.245	0.97	0.769	0.87	0.806	0.944
RERF-LC-KJ	0.846	0.84	0.914	0.85	0.768	1.04	1.12	1.05	1.01	0.937	0.871	0.839	0.542	0.373	0.999	1.01	0.934	1.01	0.948
LCLC-103H	0.689	0.755	0.726	0.677	0.724	1.05	1.07	1.18	1.06	1.03	0.945	0.929	0.451	0.423	0.99	1	0.896	0.997	1.06
SK-LU-1	0.43	0.495	0.492	0.49	0.385	0.953	1.29	1.11	1.15	1.05	0.719	0.575	0.358	0.276	1.05	1.05	0.878	0.997	1.04
Calu-6						0.948	1.21	1.07	1.08	0.966	0.724	0.59	0.247	0.133	1.02	0.906	0.923	1.06	1
NCI-H1648	0.43	0.459	0.715	0.568	0.378	0.943	0.809	1.03	0.853	0.779	1.03	0.712	0.637	0.278	0.724	0.698	0.846	0.832	0.956
NCI-H522	0.862	0.723	0.675	0.883	0.715	1.02	1.05	1.16	0.982	1.17	0.694	0.844	0.52	0.639	0.983	0.793	0.954	1.05	0.959
LOU-NH91	0.774	0.749	0.802	0.825	0.808	0.971	0.918	1.03	0.939	0.932	0.898	0.971	0.456	0.385	0.979	0.712	0.941	0.937	0.975
HCC-366	0.34	0.253	0.311	0.333	0.212	1.11	1.23	1.05	1.08	0.979	0.591	0.615	0.093	0.081	1.03	1.03	0.977	1.02	1.06
CAL-12T	0.306	0.242	0.316	0.259	0.351	1.04	1.04	1.14	0.907	1	0.81	1.04	0.485	0.293	1.01	0.936	0.962	1.07	0.951
PC-3 [JPC-3]	0.63	0.523	0.79	0.662	0.62	1.04	1.01	1.05	0.983	0.994	0.564	0.833	0.529	0.357	0.977		0.921	1.06	1
NCI-H2087	0.233	0.159	0.221	0.189	0.161	1.06	1.11	1.17	0.995	0.933	0.406	0.496	0.187	0.203	1.2	1.02	0.953	1.08	1.1
